Experimental data reported in US20240109865A1, “INDAZOLE COMPOUNDS AS KINASE INHIBITORS” (TYRA BIOSCIENCES, INC., priority 2020, published 2024).
Read-outs that look alike come from different tables or passages of the source.

Experiments:
[1] = tested on: RT112/84 cells (FGFR3-fusion); experiment: RT112/84 cancer cell line cell viability assay (CellTiter-Glo 2.0); type: cell-based; details: Homo sapiens, 72 hours, Cell Titer Glo 2.0
Procedure, shortened: (§1)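 Viability was measured as cellular ATP by CellTiter-Glo 2.0 luminescence after 72 h compound exposure, using nine 10-fold doses from 30 μM, in triplicate. Cells were plated at 10,000/well in RPMI1640 with 10% FBS the day before dosing. Signal was expressed as % of DMSO-treated control, and IC50 came from a 4-parameter fit.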

[2] = molecular target: FGFR3-BAIAP2L1 Ba/F3 cells (Homo sapiens, UniProt P22607); experiment: Ba/F3 cell viability assay (CellTiter-Glo 2.0), FGFR3-BAIAP2L1 Ba/F3; type: cell-based
FGFR3-BAIAP2L1 Ba/F3 cells, sequence (P22607 23-806 limits assumed, change not shown): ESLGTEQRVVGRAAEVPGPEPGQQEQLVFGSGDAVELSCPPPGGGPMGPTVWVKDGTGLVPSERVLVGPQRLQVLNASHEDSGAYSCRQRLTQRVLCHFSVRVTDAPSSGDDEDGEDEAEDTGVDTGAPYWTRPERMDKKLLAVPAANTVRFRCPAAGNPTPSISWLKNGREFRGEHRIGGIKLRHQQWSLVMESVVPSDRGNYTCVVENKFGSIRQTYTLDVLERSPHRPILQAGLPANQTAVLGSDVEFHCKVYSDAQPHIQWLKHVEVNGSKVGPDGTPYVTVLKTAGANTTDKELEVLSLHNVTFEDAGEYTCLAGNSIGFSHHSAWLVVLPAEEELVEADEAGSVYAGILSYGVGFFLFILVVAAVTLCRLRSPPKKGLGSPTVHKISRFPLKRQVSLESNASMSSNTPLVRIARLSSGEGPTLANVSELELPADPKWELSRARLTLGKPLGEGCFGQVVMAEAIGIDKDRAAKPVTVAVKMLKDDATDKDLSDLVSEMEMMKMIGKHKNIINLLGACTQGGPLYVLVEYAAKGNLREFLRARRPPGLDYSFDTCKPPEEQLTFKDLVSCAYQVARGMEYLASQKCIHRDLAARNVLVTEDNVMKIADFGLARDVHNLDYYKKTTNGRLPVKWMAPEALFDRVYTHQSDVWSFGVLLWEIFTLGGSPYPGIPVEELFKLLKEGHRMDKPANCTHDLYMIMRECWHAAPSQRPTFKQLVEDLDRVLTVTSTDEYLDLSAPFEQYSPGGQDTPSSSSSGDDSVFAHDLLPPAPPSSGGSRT
Procedure, shortened: (§2)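 Viability read as ATP luminescence (CellTiter-Glo 2.0) after 48 h compound exposure, normalized to DMSO-treated cells and fitted with a 4-parameter curve for IC50. Cells: Ba/F3 dependent on FGFR1-BCR or FGFR3-BAIAP2L1 fusion kinase; top dose 30 μM, 10-fold steps, 9 doses in triplicate.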

FGFR1-BCR Ba/F3 cells = FGFR1-BCR Ba/F3 cells (Homo sapiens, UniProt P11362); experiment: Ba/F3 cell viability assay (CellTiter-Glo 2.0), FGFR1-BCR Ba/F3; type: cell-based
FGFR1-BCR Ba/F3 cells, sequence (P11362 22-822 limits assumed, change not shown): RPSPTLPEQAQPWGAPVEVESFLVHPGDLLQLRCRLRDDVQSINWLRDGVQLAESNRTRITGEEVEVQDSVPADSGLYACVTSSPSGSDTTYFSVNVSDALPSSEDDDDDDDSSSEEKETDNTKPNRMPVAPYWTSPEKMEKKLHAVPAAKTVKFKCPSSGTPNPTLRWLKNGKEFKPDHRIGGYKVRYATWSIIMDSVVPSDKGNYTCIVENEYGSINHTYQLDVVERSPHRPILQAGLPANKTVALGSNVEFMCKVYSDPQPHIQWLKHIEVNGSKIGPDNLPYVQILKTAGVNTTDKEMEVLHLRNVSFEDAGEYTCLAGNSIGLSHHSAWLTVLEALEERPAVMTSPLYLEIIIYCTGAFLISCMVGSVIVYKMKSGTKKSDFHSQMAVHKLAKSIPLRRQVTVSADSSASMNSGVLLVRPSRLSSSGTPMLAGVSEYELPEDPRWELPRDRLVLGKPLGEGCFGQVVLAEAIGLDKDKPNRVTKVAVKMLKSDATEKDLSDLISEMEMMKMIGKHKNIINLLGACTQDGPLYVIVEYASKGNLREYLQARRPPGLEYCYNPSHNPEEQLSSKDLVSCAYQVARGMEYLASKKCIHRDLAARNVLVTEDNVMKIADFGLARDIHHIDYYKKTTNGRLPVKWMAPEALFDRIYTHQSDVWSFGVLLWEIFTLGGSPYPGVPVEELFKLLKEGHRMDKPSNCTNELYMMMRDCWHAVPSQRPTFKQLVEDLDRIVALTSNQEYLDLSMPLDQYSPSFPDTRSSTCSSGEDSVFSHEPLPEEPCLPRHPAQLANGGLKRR
Procedure, shortened: as §2

[3] = tested on: KG-1 cells (FGFR1-fusion); experiment: KG-1 cancer cell line cell viability assay (CellTiter-Glo 2.0); type: cell-based; details: Homo sapiens, 72 hours, Cell Titer Glo 2.0
Procedure, shortened: as §1

FGFR4 = FGFR4 (Homo sapiens (Human), UniProt P22455); experiment: Kinase assay, binding constants (Kd), kinase-tagged T7 phage, qPCR
FGFR4, sequence (P22455 22-802): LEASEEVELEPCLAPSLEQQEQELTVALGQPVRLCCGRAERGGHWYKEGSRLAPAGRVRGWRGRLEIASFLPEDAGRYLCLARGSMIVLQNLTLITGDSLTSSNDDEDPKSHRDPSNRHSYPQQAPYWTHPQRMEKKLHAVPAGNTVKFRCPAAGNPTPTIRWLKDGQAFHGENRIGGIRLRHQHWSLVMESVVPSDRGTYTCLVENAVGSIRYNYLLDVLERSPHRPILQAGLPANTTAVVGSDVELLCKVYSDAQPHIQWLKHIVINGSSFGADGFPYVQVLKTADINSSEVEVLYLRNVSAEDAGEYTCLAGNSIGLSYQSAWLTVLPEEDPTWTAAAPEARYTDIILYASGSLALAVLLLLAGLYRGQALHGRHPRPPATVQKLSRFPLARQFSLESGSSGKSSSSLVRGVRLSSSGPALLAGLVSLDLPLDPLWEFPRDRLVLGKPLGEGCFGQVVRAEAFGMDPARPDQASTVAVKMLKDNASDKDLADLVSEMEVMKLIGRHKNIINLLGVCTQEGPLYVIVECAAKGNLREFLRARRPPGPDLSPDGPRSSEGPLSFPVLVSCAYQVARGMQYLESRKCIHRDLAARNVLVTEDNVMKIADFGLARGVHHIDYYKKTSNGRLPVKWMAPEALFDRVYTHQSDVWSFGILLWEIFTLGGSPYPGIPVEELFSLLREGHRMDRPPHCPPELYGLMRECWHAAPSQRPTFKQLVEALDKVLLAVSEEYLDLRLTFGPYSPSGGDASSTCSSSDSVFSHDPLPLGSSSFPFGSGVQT
Procedure, shortened: (§3)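 Using T7 phage lysates from BL21-derived E. coli, compounds at 0.9% final DMSO competed for kinase binding to ligand-bearing magnetic beads. After elution, qPCR measured remaining kinase, and Kds were fitted by non-linear least squares with the Hill slope fixed at −1.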

FGFR3 = FGFR3 (Homo sapiens (Human), UniProt P22607); experiment: as above
FGFR3, sequence (P22607 23-806): as the sequence (P22607 23-806 limits assumed, change not shown) above
Procedure, shortened: as §3

FGFR2 = FGFR2 (Homo sapiens (Human), UniProt P21802); experiment: as above
FGFR2, sequence (P21802 22-821): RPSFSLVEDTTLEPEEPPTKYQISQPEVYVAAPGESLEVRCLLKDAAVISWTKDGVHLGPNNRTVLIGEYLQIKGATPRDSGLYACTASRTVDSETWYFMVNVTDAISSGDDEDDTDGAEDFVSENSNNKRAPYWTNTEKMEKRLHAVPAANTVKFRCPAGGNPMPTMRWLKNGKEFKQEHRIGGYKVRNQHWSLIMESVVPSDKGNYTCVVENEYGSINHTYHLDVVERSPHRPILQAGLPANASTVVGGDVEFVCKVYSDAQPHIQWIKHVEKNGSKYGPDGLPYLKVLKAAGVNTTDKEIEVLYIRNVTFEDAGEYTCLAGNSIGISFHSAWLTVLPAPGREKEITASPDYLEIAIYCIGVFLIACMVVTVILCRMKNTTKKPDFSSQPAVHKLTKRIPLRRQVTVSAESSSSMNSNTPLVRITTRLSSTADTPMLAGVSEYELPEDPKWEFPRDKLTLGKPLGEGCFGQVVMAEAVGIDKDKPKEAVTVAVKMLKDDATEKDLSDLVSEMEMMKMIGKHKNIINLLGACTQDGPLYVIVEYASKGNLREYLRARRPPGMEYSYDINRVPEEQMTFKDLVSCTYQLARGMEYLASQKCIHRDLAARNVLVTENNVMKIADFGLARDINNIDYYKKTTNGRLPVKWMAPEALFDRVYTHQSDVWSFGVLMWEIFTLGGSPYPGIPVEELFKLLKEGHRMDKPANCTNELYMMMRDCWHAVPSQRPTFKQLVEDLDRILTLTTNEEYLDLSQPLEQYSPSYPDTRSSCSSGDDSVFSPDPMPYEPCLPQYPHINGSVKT
Procedure, shortened: as §3

FGFR1 = FGFR1 (Homo sapiens (Human), UniProt P11362); experiment: as above
FGFR1, sequence (P11362 22-822): as the sequence (P11362 22-822 limits assumed, change not shown) above
Procedure, shortened: as §3

FGFR3 (V555M) = FGFR3 (V555M) (Homo sapiens (Human), UniProt P22607, V555M); experiment: as above; details: V555M mutant
FGFR3 (V555M), sequence (P22607 23-806 V555M): as the sequence (P22607 23-806 limits assumed, change not shown) above, with V533M counted along it
Procedure, shortened: as §3

[4] = tested on: UM-UC-14 cells (FGFR3(S249C)); experiment: UM-UC-14 cancer cell line cell viability assay (CellTiter-Glo 2.0); type: cell-based; details: UMUC14, 72 hours, Cell Titer Glo 2.0
Excerpt: Experimental Purpose: To detect the change of intracellular ATP by Cell Titer-Glo® and to evaluate the inhibitory effect of the compounds on cancer cell lines by determining the in vitro IC50 value of the compounds.
Cell Titer-Glo® 2.0 Luminescent cell viability assay reagent was purchased from Promega (Madison, WI). RT112/84 and KG-1 cell lines were purchased from American Type Culture Collection (Manassas, VA). UM-UC-14 cell line was purchased from Sigma (St. Louis, MO). RT112/84, UM-UC-14, and KG-1 cells were cultured in RPMI1640 media supplemented with 10% fetal bovine serum. Cultures were maintained at 37° C. in a humidified atmosphere of 5% C02 and 95% air.
Cell Viability Assay Procedure: Cells were plated in 96-well clear bottom/white plates (Corning #3903) at 10,000 cells/well in 100 μl of media, incubated overnight. The next day, test compound DMSO stock solutions were made at 10 mM and 2 μM final concentration. Compounds were then added to cells in a 9-dose, 10-fold dilution series starting at 30 μM with an HP 300e Digital Dispenser (each dose was applied in triplicate). DMSO was backfilled to each well up to 301 nL total volume of test compound+DMSO, and a total of 301 nL DMSO was added to a control/no test compound well in triplicate. The cells in cell culture plates were incubated with the compounds at 37° C. and 5% C02 for 72 hours. Then 50 μl of Cell Titer Glo 2.0 reagent was added to each well of the cell culture plates. The contents were covered from light and mixed on an orbital shaker at room temperature for 10 min. Luminescence was recorded by a Synergy H1 Microplate Reader (Biotek, Winooski, VT). Cells were assessed as a percentage of DMSO only treated control cells. Curves were plotted and IC50 values were calculated using the GraphPad Prism 8 program based on a sigmoidal dose-response equation (4 parameter).

[5] = FGFR3 > FGFR1 selectivity ratio in Ba/F3 FGFR fusion cell based assays
[6] = read-out: Ba/F3 Cells FGFR3 (IC50 nM); FGFR3-BAIAP2L1 Ba/F3 cells, 48 hours, Cell Titer Glo 2.0
[7] = read-out: Ba/F3 Cells FGFR1 (IC50 nM), 48 hours, Cell Titer Glo 2.0

Row | SMILES | IC50 [1] | Ba/F3 FGFR1/FGFR3 Selectivity [2, 5] | IC50 [2, 6] | IC50 (FGFR1-BCR Ba/F3 cells; [7]) | IC50 [3] | Kd (FGFR4) | Kd (FGFR3) | Kd (FGFR2) | Kd (FGFR1) | Kd (FGFR3 (V555M)) | IC50 [4] | IC50 ([2]; FGFR3-BAIAP2L1 Ba/F3 cells, 48 hours, Cell Titer Glo 2.0; read-out: Ba/F3 Cells FGFR3 (IC50 nM)) | IC50 (FGFR1-BCR Ba/F3 cells; 48 hours, Cell Titer Glo 2.0, read-out: Ba/F3 Cells FGFR1 (IC50 nM))
1 | C[C@@H](Oc1ccc2[nH]nc(-c3ccc(N4CCN(C(=O)N(C)C)C5(CC5)C4)nc3)c2c1)c1c(Cl)cncc1Cl [Example 23, (R)-7-(5-(5-(1-(3,5-dichloropyridin-4-yl)ethoxy)-1H-indazol-3-yl)pyridin-2-yl)-N,N-dimethyl-4,7-diazaspiro[2.5]octane-4-carboxamide] | 1 to 20 nM | 16 | 1 to 20 nM | 100 to 300 nM | 100 to 300 nM | > 300 nM | 100 to 300 nM | > 300 nM | > 300 nM | 20 to 100 nM | 1 to 20 nM |  | 
2 | C[C@@H](Oc1ccc2[nH]nc(-c3ccc(N4CC5(C4)CN(S(C)(=O)=O)C5)nc3)c2c1)c1c(Cl)cncc1Cl [Example 46, 5-[(1R)-1-(3,5-dichloro-4-pyridyl)ethoxy]-3-[6-(2-methylsulfonyl-2,6-diazaspiro[3.3]heptan-6-yl)-3-pyridyl]-1H-indazole] | 1 to 20 nM | 14 | 1 to 20 nM | 20 to 100 nM | 20 to 100 nM | 1 to 20 nM | 1 to 20 nM | 1 to 20 nM | 1 to 20 nM | 1 to 20 nM | 1 to 20 nM |  | 
3 | C[C@@H](Oc1ccc2[nH]nc(-c3cnc(N4CCN(S(C)(=O)=O)CC4)nc3)c2c1)c1c(Cl)cncc1Cl [Example 14, 5-[(1R)-1-(3,5-Dichloro-4-pyridyl)ethoxy]-3-[2-(4-methylsulfonylpiperazin-1-yl)pyrimidin-5-yl]-1H-indazole] | 1 to 20 nM | 18 | 1 to 20 nM | > 300 nM | 100 to 300 nM | 1 to 20 nM | 1 to 20 nM | 20 to 100 nM | 1 to 20 nM | 1 to 20 nM | 20 to 100 nM |  | 
4 | C[C@@H](Oc1ccc2[nH]nc(-c3ccc(N4CC5CC(C4)N5S(C)(=O)=O)nc3)c2c1)c1c(Cl)cncc1Cl [Example 20, 5-[(1R)-1-(3,5-dichloro-4-pyridyl)ethoxy]-3-[6-(6-methylsulfonyl-3,6-diazabicyclo[3.1.1]heptan-3-yl)-3-pyridyl]-1H-indazole] | 20 to 100 nM | 15 |  |  | 100 to 300 nM | 1 to 20 nM | 1 to 20 nM | 20 to 100 nM | 20 to 100 nM | 1 to 20 nM | 20 to 100 nM | 20 to 100 nM | > 300 nM
5 | Cc1cncc(C)c1[C@@H](C)Oc1ccc2[nH]nc(-c3ccc(N4CC5(C4)CN(S(C)(=O)=O)C5)nc3)c2c1 [Example 139, 5-[(1R)-1-(3,5-dimethyl-4-pyridyl)ethoxy]-3-[6-(2-methylsulfonyl-2,6-diazaspiro[3.3]heptan-6-yl)-3-pyridyl]-1H-indazole] | 1 to 20 nM | 14 | 20 to 100 nM | 100 to 300 nM | 100 to 300 nM | 1 to 20 nM | 1 to 20 nM | 1 to 20 nM | 20 to 100 nM | 1 to 20 nM | 1 to 20 nM |  | 
6 | C[C@@H](Oc1ccc2[nH]nc(-c3ccc(N4CCNC5(CC5)C4)nc3)c2c1)c1c(Cl)cncc1Cl [Example 21, 3-[6-(4,7-diazaspiro[2.5]octan-7-yl)-3-pyridyl]-5-[(1R)-1-(3,5-dichloro-4-pyridyl)ethoxy]-1H-indazole] | 1 to 20 nM | 13 | 1 to 20 nM | 100 to 300 nM | 20 to 100 nM | 1 to 20 nM | 1 to 20 nM | 1 to 20 nM | 1 to 20 nM | 1 to 20 nM | 1 to 20 nM |  | 
7 | C[C@@H](Oc1ccc2[nH]nc(-c3ccc(N4CCN(S(C)(=O)=O)CC4)nc3)c2c1)c1c(Cl)cncc1Cl [Example 6, 5-[(1R)-1-(3,5-dichloro-4-pyridyl)ethoxy]-3-[6-(4-methylsulfonyl-piperazin-1-yl)-3-pyridyl]-1H-indazole] | 1 to 20 nM | 13 | 1 to 20 nM | 20 to 100 nM | 20 to 100 nM | 1 to 20 nM | 1 to 20 nM | 20 to 100 nM | 1 to 20 nM | 1 to 20 nM | 1 to 20 nM |  | 
8 | CCOC(=O)N1CC2(C1)CN(c1ccc(-c3n[nH]c4ccc(O[C@H](C)c5c(C)cnnc5C)cc34)cn1)C2 [Example 142, ethyl 6-[5-[5-[(1R)-1-(3,5-dimethylpyridazin-4-yl)ethoxy]-1H-indazol-3-yl]-2-pyridyl]-2,6-diazaspiro[3.3]heptane-2-carboxylate] | 20 to 100 nM | 25 | 1 to 20 nM | 100 to 300 nM | 100 to 300 nM | 1 to 20 nM | 1 to 20 nM | 1 to 20 nM | 20 to 100 nM | 1 to 20 nM | 1 to 20 nM |  | 
9 | C[C@@H](Oc1ccc2[nH]nc(-c3ccc(N4CCS(=O)(=O)CC4)nc3)c2c1)c1c(Cl)cncc1Cl [Example 1, 4-[5-[5-[(1R)-1-(3,5-dichloro-4-pyridyl)ethoxy]-1H-indazol-3-yl]-2-pyridyl]-1,4-thiazinane 1,1-dioxide] | 1 to 20 nM | 33 | 1 to 20 nM | 100 to 300 nM | 100 to 300 nM | 1 to 20 nM | 1 to 20 nM | 1 to 20 nM | 1 to 20 nM | 1 to 20 nM | 1 to 20 nM |  | 
10 | C[C@@H](Oc1ccc2[nH]nc(-c3ccc(N4CCN(S(=O)(=O)N5CCN(C)CC5)CC4)nc3)c2c1)c1c(Cl)cncc1Cl [Example 8, 5-[(1R)-1-(3,5-dichloro-4-pyridyl)ethoxy]-3-[6-[4-(4-methylpiperazin-1-yl)sulfonylpiperazin-1-yl]-3-pyridyl]-1H-indazole] | 1 to 20 nM | 16 | 1 to 20 nM | 100 to 300 nM | 100 to 300 nM | 1 to 20 nM | 1 to 20 nM | 20 to 100 nM | 20 to 100 nM | 1 to 20 nM | 1 to 20 nM |  | 
11 | C[C@@H](Oc1ccc2[nH]nc(-c3cnc(N4CCC5(CC4)CNC(=O)C5)nc3)c2c1)c1c(Cl)cncc1Cl [Example 49, 8-[5-[5-[(1R)-1-(3,5-dichloro-4-pyridyl)ethoxy]-1H-indazol-3-yl]pyrimidin-2-yl]-2,8-diazaspiro[4.5]decan-3-one] | 20 to 100 nM | 10 | 1 to 20 nM | 100 to 300 nM | 100 to 300 nM | 1 to 20 nM | 1 to 20 nM | 20 to 100 nM | 20 to 100 nM | 1 to 20 nM | 20 to 100 nM |  | 
